Legend:
PSMA = biological target: T1, PSMA (Homo sapiens, UniProt Q04609); experiment: In vitro competition binding assay using LNCaP cells and [18F]DCFPyL as radioligand; conditions: displacement of [18F]DCFPyL from LNCaP cells, n = 3; read-out: PSMA binding affinity (Ki)
T1 construct: endogenous in cells; host or cells: LNCaP prostate cancer cells
Experimental: The binding assays were conducted following previously published procedures using LNCaP cells and [^18F]DCFPyL as the radioligand [17]-[19]. Briefly, LNCaP cells (400,000/well) were plated onto a 24-well poly-D-lysine coated plate for 48 h. Growth media was removed and replaced with HEPES buffered saline (50 mM HEPES, pH 7.5, 0.9% sodium chloride) and the cells were incubated for 1 h at 37 °C. [^18F]DCFPyL (0.1 nM) was added to each well (in triplicate) containing various concentrations (0.5 mM - 0.05 nM) of tested nonradioactive Ga-complexed compounds. Non-specific binding was determined in the presence of 10 µM non-radiolabeled DCFPyL. The assay mixtures were further incubated for 1 h at 37 °C with gentle agitation. Then, the buffer and radioligand were removed, and cells were washed twice with cold HEPES buffered saline. To harvest the cells, 400 µL of 0.25 % trypsin solution was added to each well. Radioactivity was measured on a PerkinElmer (Waltham, MA) Wizard2 2480 automatic gamma counter. Data analyses of Ki were performed using the nonlinear regression algorithm of GraphPad (San Diego, CA) Prism 7 software.

LNCaP tumor-bearing mice = experiment: Radioligand therapy study in LNCaP tumor-bearing NRG mice; conditions: 500 pmol nonradioactive

T1 sequence (Q04609 whole entry): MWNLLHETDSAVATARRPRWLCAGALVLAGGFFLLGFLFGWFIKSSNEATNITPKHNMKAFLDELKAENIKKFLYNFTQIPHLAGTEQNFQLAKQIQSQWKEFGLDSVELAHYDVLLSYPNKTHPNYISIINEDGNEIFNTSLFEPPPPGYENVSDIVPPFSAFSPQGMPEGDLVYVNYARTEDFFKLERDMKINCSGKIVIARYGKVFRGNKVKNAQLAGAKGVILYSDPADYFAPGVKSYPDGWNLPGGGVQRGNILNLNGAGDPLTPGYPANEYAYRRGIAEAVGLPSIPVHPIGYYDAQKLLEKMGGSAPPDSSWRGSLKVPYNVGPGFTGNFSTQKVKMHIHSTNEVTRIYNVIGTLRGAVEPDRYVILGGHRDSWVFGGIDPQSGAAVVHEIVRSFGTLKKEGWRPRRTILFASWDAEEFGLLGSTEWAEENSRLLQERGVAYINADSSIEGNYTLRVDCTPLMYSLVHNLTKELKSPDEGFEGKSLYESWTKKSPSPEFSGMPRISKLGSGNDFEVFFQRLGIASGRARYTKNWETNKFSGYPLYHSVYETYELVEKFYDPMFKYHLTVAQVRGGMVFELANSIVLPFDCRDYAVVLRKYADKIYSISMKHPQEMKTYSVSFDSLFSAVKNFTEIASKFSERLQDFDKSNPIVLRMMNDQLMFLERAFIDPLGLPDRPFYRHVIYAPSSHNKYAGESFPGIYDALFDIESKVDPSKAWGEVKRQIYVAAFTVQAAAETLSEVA

SMILES | Ki (PSMA) [nM] | Median survival (LNCaP tumor-bearing mice) [days]
O=C([O-])CN1CCN(CC(=O)[O-])CCN(CC(=O)NCC2CCC(C(=O)NC(Cc3c4ccccc4cc4ccccc34)C(=O)NCCCCC(NC(=O)NC(CCCCC(=O)O)C(=O)O)C(=O)O)CC2)CCN(CC(=O)[O-])CC1.[Ga+3] (single isomer, unassigned) [Ga-HTK03189A] | 550 ± 35.7 | –
O=C([O-])CN1CCN(CC(=O)[O-])CCN(CC(=O)NCC2CCC(C(=O)NC(Cc3c4ccccc4cc4ccccc34)C(=O)NCCCCC(NC(=O)NC(CCCC(=O)O)C(=O)O)C(=O)O)CC2)CCN(CC(=O)[O-])CC1.[Ga+3] (centres unmarked) [Ga-HTK03149] | 6.99 ± 0.8 | –
O=C([O-])CN1CCN(CC(=O)[O-])CCN(CC(=O)NCC2CCC(C(=O)NC(Cc3c4ccccc4cc4ccccc34)C(=O)NCCCCC(NC(=O)NC(CC(=O)O)C(=O)O)C(=O)O)CC2)CCN(CC(=O)[O-])CC1.[Ga+3] (centres unmarked) [Ga-HTK03161] | 3.88 ± 0.66 | –
O=C([O-])CN1CCN(CC(=O)[O-])CCN(CC(=O)NCC2CCC(C(=O)NC(Cc3c4ccccc4cc4ccccc34)C(=O)NCCCCC(NC(=O)NC(CCCC(=O)O)C(=O)O)C(=O)O)CC2)CCN(CC(=O)[O-])CC1.[Lu+3] (centres unmarked) [Lu-HTK03149] | 1.57 ± 0.42 | 18
